# Assay results from article PMC6445327, “Inhibition of the α-carbonic anhydrase from Vibrio cholerae with amides and sulfonamides incorporating imidazole moieties” (Journal of Enzyme Inhibition and Medicinal Chemistry, 2017).
# pKi: −log10 of the molar value.
# How the values were obtained:
# [1] = target: T1, hCA I (Homo sapiens, UniProt P00915); assay: Stopped-flow CO2 hydration assay, CA inhibition; format: biochemical
# T1 construct: made in house
# Experimental: (§1) The uncatalyzed rates were determined in the same manner and subtracted from the total observed rates. Stock solutions of inhibitor (0.01 mM) were prepared in distilled–deionised water with 5% DMSO and dilutions up to 0.1 nM were done thereafter with the assay buffer. The Inhibition constant (KI) was obtained by considering the classical Michaelis–Menten equation, which has been fitted by non-linear least squares by using PRISM 3. All CA isozymes used in the experiments were purified recombinant proteins obtained as reported earlier by our group.
# [2] = target: T2, hCA II (Homo sapiens, UniProt P00918); assay: Stopped-flow CO2 hydration assay, CA inhibition; format: biochemical
# T2 construct: made in house
# Experimental: as §1
# [3] = target: VchCA (Vibrio cholerae α-carbonic anhydrase) (Vibrio cholerae, UniProt Q9KMP6); assay: biochemical
# Chain of VchCA (Vibrio cholerae α-carbonic anhydrase) (Q9KMP6 entry or part of it): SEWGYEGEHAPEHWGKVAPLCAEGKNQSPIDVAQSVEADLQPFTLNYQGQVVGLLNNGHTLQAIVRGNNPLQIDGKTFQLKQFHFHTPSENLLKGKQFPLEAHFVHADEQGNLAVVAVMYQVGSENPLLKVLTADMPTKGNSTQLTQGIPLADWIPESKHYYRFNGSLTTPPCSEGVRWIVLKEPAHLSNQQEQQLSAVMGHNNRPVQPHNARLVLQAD
# Experimental: as §1
# [4] = tested on: two V. cholerae O1 strains (ATCC14103 and ISS-Vc014); assay: In vitro antibacterial assay (broth dilution), strain not distinguished; format: cell-based, Vibrio cholerae; conditions: up to 3 mg ml^−1 (the limit of solubility)
# [5] = Limit of solubility in the antibacterial test; conditions: 37 °C
# [6] = tested on: V. cholerae O1 reference strain ATCC14103; assay: In vitro antibacterial assay (broth dilution); format: cell-based, Vibrio cholerae; conditions: for concentration inhibiting bacterial growth: 37 °C, 18–20 h, tryptic soy broth
# [7] = tested on: V. cholerae O1 strain ISS-Vc014 (multiresistant clinical isolate); assay: In vitro antibacterial assay (broth dilution); format: cell-based, Vibrio cholerae; conditions: for concentration inhibiting bacterial growth: 37 °C, 18–20 h, tryptic soy broth
# T1 sequence (P00915 whole entry): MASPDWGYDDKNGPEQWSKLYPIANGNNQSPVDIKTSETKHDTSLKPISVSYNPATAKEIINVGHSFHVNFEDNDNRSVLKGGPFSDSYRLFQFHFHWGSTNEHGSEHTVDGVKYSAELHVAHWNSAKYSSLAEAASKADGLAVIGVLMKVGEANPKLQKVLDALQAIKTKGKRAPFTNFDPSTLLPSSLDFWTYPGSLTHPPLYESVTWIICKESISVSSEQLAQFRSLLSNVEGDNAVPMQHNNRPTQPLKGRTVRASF
SMILES,pKi [1],pKi [2],pKi [3],inhibition of the bacterial growth at higher concentrations [4],melting point [°C],solubility [5] [µg/mL],concentration inhibiting bacterial growth [6],concentration inhibiting bacterial growth [7] [mg/mL],activity compared to ampicillin [6],activity compared to ampicillin [7]
"O=C(NCCCn1ccnc1)c1ccc([N+](=O)[O-])cc1 [Compound 8, N-(3-(1H-imidazol-1-yl)propyl)-4-nitrobenzamide]",5.76,< 5.00,7.96,partially active,152 to 154,3000,,,,
"O=S(=O)(NCCCn1ccnc1)c1ccc(C(F)(F)F)cc1 [Compound 3, N-(3-(1H-imidazol-1-yl)propyl)-4-(trifluoromethyl)benzenesulfonamide]",< 4.30,< 4.30,8.19,,127 to 128,,,,,
"CC1(C)S[C@@H]2[C@H](NC(=O)[C@H](N)c3ccccc3)C(=O)N2[C@H]1C(=O)O [Ampicillin, reference compound]",,,,,,,higher than 0.01 mg ml^−1,1.0,,
"O=S(=O)(NCCCn1ccnc1)c1ccc(F)cc1 [Compound 2, N-(3-(1H-imidazol-1-yl)propyl)-4-fluorobenzenesulfonamide]",5.77,< 5.00,8.07,,121 to 123,,2 mg/mL,2,less active,comparable activity
"O=C(NCCCn1ccnc1)c1ccc(-c2ccccc2)cc1 [Compound 9, N-(3-(1H-imidazol-1-yl)propyl)-[1,1′-biphenyl]-4-carboxamide]",< 4.30,< 4.30,8.27,,,,,,,
"CS(=O)(=O)NCCCn1ccnc1 [Compound 1, N-(3-(1H-imidazol-1-yl)propyl)methanesulfonamide]",6.41,< 5.00,7.96,,89 to 91,,,,,
"O=C(NCCCn1ccnc1)c1ccc(C(F)(F)F)cc1 [Compound 7, N-(3-(1H-imidazol-1-yl)propyl)-4-(trifluoromethyl)benzamide]",5.59,< 5.00,7.98,not active,106 to 107,3000,,,,
"O=C(NCCCc1ccccc1)c1ccc([N+](=O)[O-])cc1 [Compound 10, 4-Nitro-N-(3-phenylpropyl)benzamide]",< 4.30,< 4.30,8.11,,95 to 97,,,,,
"O=C(NCCCn1ccnc1)c1ccc(F)cc1 [Compound 6, N-(3-(1H-imidazol-1-yl)propyl)-4-fluorobenzamide]",< 4.30,< 4.30,8.04,,70 to 72,,,,,
"O=[N+]([O-])c1ccc(S(=O)(=O)NCCCn2ccnc2)cc1 [Compound 4, N-(3-(1H-imidazol-1-yl)propyl)-4-nitrobenzenesulfonamide]",< 4.30,< 4.30,8.21,,140 to 141,,,,,
"CC(=O)NCCCn1ccnc1 [Compound 5, N-(3-(1H-imidazol-1-yl)propyl)acetamide]",< 4.30,< 4.30,7.41,,,,,,,
